Assays:
Assay in all cases: relative viability (nuclei count vs DMSO), 5 days (fraction); higher = more cells survive
GSK-J4 = compound: CCOC(=O)CCNc1cc(N2CCc3ccccc3CC2)nc(-c2ccccn2)n1 [GSK-J4]
How it was run: (§1)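 Lung cancer cell lines received five library-drug doses (not always all listed) spaced by √10, pinned on vehicle-anchored 1536-well plates after an overnight stay at 37 °C. Five days later, with no medium change, nuclei were Hoechst-stained, imaged at 4× and counted with MetaXpress. Viability is treated-well nuclei relative to vehicle-well nuclei, as a median across plates. Passing plates had control CV below 25% and at least one doubling.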

AZ3146 = compound: CN1CCC(CC1)OC2=CC(=C(C=C2)NC3=NC=C4C(=N3)N(C(=O)N4C)C5CCCC5)OC [AZ3146]
How it was run: as §1

AZ3146 + Bortezomib = compound: CN1CCC(CC1)OC2=CC(=C(C=C2)NC3=NC=C4C(=N3)N(C(=O)N4C)C5CCCC5)OC [AZ3146] + CC(C)C[C@H](NC(=O)[C@H](Cc1ccccc1)NC(=O)c1cnccn1)B(O)O [Bortezomib] (partner 0.002 µM)
How it was run: (§2)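 Five library-drug doses in √10 steps were combined with a fixed anchor-drug dose, or a single drug was given alone, by pin tool to lung cancer cell lines in 1536-well plates the day after seeding. Nuclei were stained and counted after 5 days. Relative viability is the nuclei count in treated wells over that in vehicle wells, taken as the median of duplicate plates.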

GSK-J4 + Alpelisib = compound: CCOC(=O)CCNc1cc(N2CCc3ccccc3CC2)nc(-c2ccccn2)n1 [GSK-J4] + Cc1nc(NC(=O)N2CCC[C@H]2C(N)=O)sc1-c1ccnc(C(C)(C)C(F)(F)F)c1 [Alpelisib] (partner 2 µM)
How it was run: as §2

Cell Line	relative viability (GSK-J4; 0.5 µM)	relative viability (GSK-J4; 1.581 µM)	relative viability (GSK-J4; 5 µM)	relative viability (GSK-J4; 15.81 µM)	relative viability (GSK-J4; 50 µM)	relative viability (AZ3146; 0.08 µM)	relative viability (AZ3146; 0.253 µM)	relative viability (AZ3146; 0.8 µM)	relative viability (AZ3146; 2.53 µM)	relative viability (AZ3146; 8 µM)	relative viability (AZ3146 + Bortezomib; first compound 0.08 µM)	relative viability (AZ3146 + Bortezomib; first compound 0.253 µM)	relative viability (AZ3146 + Bortezomib; first compound 0.8 µM)	relative viability (AZ3146 + Bortezomib; first compound 2.53 µM)	relative viability (AZ3146 + Bortezomib; first compound 8 µM)	relative viability (GSK-J4 + Alpelisib; first compound 0.5 µM)	relative viability (GSK-J4 + Alpelisib; first compound 1.581 µM)	relative viability (GSK-J4 + Alpelisib; first compound 5 µM)	relative viability (GSK-J4 + Alpelisib; first compound 15.81 µM)	relative viability (GSK-J4 + Alpelisib; first compound 50 µM)
NCI-H1703	0.936	0.903	0.815	0.781	0.804	0.979	0.901	0.789	0.806	0.55	0.213	0.485	0.292	0.275	0.275	0.286	0.461	0.289	0.372	0.363
NCI-H1755	0.969	0.847	0.728	0.929	0.916	0.933	1.02	0.955	0.994	0.984	1.03	0.996	0.921	1.04	0.667	0.897	0.763	1.02	0.915	0.852
EKVX	0.998	0.71	1.03	0.85	0.898	0.954	0.999	0.93	1	1.04	1.03	1.07	1.11	1.04	1.26	0.848	0.769	0.952	0.824	0.776
HCC-78	1.06	0.946	1.14	0.728	0.92	–	1.01	0.864	0.989	0.956	–	0.471	0.271	0.558	0.447	0.403	0.31	0.501	–	0.316
A-427	1	–	0.766	0.865	0.37	0.963	1	1.01	1.04	0.766	0.995	1.06	0.94	1.07	0.875	1	–	1.17	1.08	0.561
NCI-H3122	0.941	0.904	0.955	1.05	1.02	0.979	1	1.02	0.984	0.991	1.08	1	0.997	0.999	1.07	0.78	0.634	0.95	0.716	0.674
NCI-H1563	0.952	1.1	0.892	0.894	0.985	0.837	0.973	1.04	0.902	0.909	0.703	0.82	0.826	1.01	0.77	0.885	0.85	0.872	0.891	1.02
SW 1573	0.926	0.96	0.851	0.949	0.756	0.994	1.04	0.991	0.959	0.68	0.995	1.03	1.09	0.869	0.777	0.669	0.715	0.718	0.721	0.454
NCI-H2347	0.984	0.879	0.886	0.952	0.849	0.997	1.03	0.913	1.1	1.07	0.747	1.08	0.758	1.02	1.02	1.02	0.659	0.933	1.05	0.722
LC-2-ad	0.988	0.807	0.787	0.933	0.903	0.895	1.04	0.979	0.967	0.91	0.857	1.05	1.03	0.996	0.668	0.725	0.764	0.857	0.877	0.87
HCC-15	0.929	0.716	0.927	0.895	0.767	0.98	1.05	0.993	1.03	0.99	1.01	1.08	1.02	1.12	1.04	0.909	0.751	0.912	0.868	0.571
PC-3 [JPC-3]	1.01	1.03	0.953	0.95	0.955	0.907	0.97	1.01	1.05	0.979	0.806	0.84	0.83	0.959	0.859	0.984	0.961	1.06	0.997	0.848
NCI-H1915	0.924	0.856	–	0.969	1.12	0.9	1.04	1.07	1.03	0.991	0.933	1.01	0.502	0.955	0.973	0.972	0.97	1.04	0.99	1.01
HOP-62	1	0.835	1.04	0.987	0.749	0.958	0.986	0.98	1.03	0.956	0.401	0.967	0.694	0.851	0.44	0.956	1.01	1.12	0.912	0.859
LCLC-103H	1.07	0.883	0.908	0.954	0.94	0.974	0.949	0.974	0.995	0.965	0.993	1.03	1	0.994	0.965	0.934	0.859	1.09	0.986	1.11
NCI-H460	0.957	0.8	0.767	0.981	1.01	0.94	1.01	1.02	0.997	0.78	1.14	0.92	1.02	0.97	0.543	0.54	0.377	0.554	0.456	0.433

Cell Line	relative viability (GSK-J4; 0.5 µM)	relative viability (GSK-J4; 1.581 µM)	relative viability (GSK-J4; 5 µM)	relative viability (GSK-J4; 15.81 µM)	relative viability (GSK-J4; 50 µM)	relative viability (AZ3146; 0.08 µM)	relative viability (AZ3146; 0.253 µM)	relative viability (AZ3146; 0.8 µM)	relative viability (AZ3146; 2.53 µM)	relative viability (AZ3146; 8 µM)	relative viability (AZ3146 + Bortezomib; first compound 0.08 µM)	relative viability (AZ3146 + Bortezomib; first compound 0.253 µM)	relative viability (AZ3146 + Bortezomib; first compound 0.8 µM)	relative viability (AZ3146 + Bortezomib; first compound 2.53 µM)	relative viability (AZ3146 + Bortezomib; first compound 8 µM)	relative viability (GSK-J4 + Alpelisib; first compound 0.5 µM)	relative viability (GSK-J4 + Alpelisib; first compound 1.581 µM)	relative viability (GSK-J4 + Alpelisib; first compound 5 µM)	relative viability (GSK-J4 + Alpelisib; first compound 15.81 µM)	relative viability (GSK-J4 + Alpelisib; first compound 50 µM)
NCI-H441	0.967	0.85	0.827	0.92	0.796	0.939	1.18	1.01	1.05	1.03	0.394	0.743	0.602	1.02	0.346	0.741	0.521	0.475	0.736	0.57
SK-LU-1	0.947	0.865	0.826	0.838	0.704	0.944	1.07	1	1.08	0.936	–	–	1.02	1.15	1.5	0.927	0.885	0.661	0.834	0.565
Calu-6	0.979	0.945	0.941	0.983	1.01	0.964	1.03	0.948	0.948	0.799	0.975	1.08	0.999	0.938	0.57	0.914	0.815	0.834	1.05	0.915
NCI-H2228	0.904	1.04	1.15	0.997	0.948	1.04	0.973	1.1	0.995	0.933	0.904	1.03	1.04	1.18	0.953	0.702	0.653	0.933	0.566	0.575
LCLC-97TM1	0.865	0.753	1.05	0.608	0.755	0.836	1.01	0.932	1.1	0.751	0.53	0.792	0.569	0.973	0.172	–	–	0.271	0.24	0.164
NCI-H1993	1.13	1.09	1.08	0.756	0.533	0.926	0.843	1	1.03	0.489	1.05	1.07	1.19	1.2	0.976	0.657	0.643	0.702	0.667	0.621
NCI-H2087	0.96	0.824	0.82	1.04	0.856	0.877	1.08	1.03	1.2	0.917	0.676	0.908	0.734	0.955	0.916	0.988	1.17	–	0.933	0.745
COR-L23	0.965	0.894	–	1	0.852	0.928	1.03	1.03	0.974	0.977	0.912	1.17	0.991	0.984	0.886	0.677	0.709	–	0.68	0.781
NCI-H1355	0.979	0.916	0.821	0.902	0.943	0.941	0.971	1	1.07	0.961	1.09	1.19	1.17	1.25	1.28	0.761	0.741	0.857	0.762	0.757
RERF-LC-KJ	0.887	0.853	0.943	0.908	0.826	0.944	1.01	0.974	1.05	0.716	1.07	1.15	1.24	1.04	0.98	0.65	0.732	0.803	0.744	0.551
NCI-H727	0.863	0.754	1.11	0.85	0.468	0.838	1.08	0.838	1.21	0.74	1.02	0.953	0.717	0.934	1.18	0.549	–	0.894	0.621	0.264
NCI-H1734	0.9	0.909	0.686	0.765	0.807	0.96	1.09	0.954	1.04	0.98	0.98	1.03	0.895	0.992	0.834	0.679	0.597	0.568	0.671	0.591
NCI-H2126	0.973	0.944	1.02	0.906	0.83	0.972	1	0.99	1.06	0.919	1.07	1.11	1.09	1.09	1.08	0.763	0.706	0.787	0.741	0.684
NCI-H1792	0.932	0.606	0.925	0.697	0.832	0.759	0.776	0.93	0.841	0.905	0.784	1.04	1.05	0.976	1	0.708	0.664	0.734	0.575	0.837
NCI-H23	0.956	0.761	0.814	0.803	0.742	1.13	1.06	0.959	1.05	0.758	1.15	1.08	1.21	1.11	0.876	0.781	–	0.892	0.605	0.604
EPLC-272H	0.994	0.678	0.93	0.814	0.734	0.789	0.895	0.92	0.992	0.969	0.754	0.968	0.879	0.97	1.03	0.887	–	0.845	0.933	0.943
